Results reported in article PMC9110388, “Integrative structure determination reveals functional global flexibility for an ultra-multimodular arabinanase” (Communications Biology, 2022).

Target: T1, AbnA-WT (Geobacillus stearothermophilus, UniProt B3EYN2)
T1 sequence (B3EYN2 29-848): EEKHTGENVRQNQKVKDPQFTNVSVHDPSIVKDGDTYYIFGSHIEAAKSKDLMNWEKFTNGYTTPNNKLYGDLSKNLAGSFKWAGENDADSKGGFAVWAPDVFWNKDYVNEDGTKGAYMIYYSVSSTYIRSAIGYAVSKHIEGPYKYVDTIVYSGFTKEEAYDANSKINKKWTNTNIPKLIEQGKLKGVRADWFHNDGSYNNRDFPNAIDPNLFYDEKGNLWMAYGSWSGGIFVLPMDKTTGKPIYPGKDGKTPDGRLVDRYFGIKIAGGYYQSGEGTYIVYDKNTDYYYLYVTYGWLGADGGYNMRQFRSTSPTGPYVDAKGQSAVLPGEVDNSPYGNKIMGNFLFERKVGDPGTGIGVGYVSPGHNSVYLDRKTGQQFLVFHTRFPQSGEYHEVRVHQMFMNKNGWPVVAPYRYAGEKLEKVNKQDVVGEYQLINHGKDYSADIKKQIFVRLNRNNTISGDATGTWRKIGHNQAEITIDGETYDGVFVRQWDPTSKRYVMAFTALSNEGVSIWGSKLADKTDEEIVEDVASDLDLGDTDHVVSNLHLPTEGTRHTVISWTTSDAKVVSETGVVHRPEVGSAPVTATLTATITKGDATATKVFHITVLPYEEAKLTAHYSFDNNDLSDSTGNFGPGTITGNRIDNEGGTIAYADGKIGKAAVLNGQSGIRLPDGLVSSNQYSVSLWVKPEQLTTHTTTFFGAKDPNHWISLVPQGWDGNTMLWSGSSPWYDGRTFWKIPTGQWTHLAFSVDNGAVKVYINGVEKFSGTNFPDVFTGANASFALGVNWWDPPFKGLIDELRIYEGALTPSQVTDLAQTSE
Assay: X-ray crystal structure, soaked crystal, […] A
Format: binding
Settings: bound in Domain4 (CBM-like) cleft, not in the active site; 5 mM soak ~30 s; 70% occupancy

For `OC[C@@H]1O[C@@H](OC[C@@H]2O[C@@H](OC[C@@H]3O[C@@H](OC[C@@H]4O[C@@H](OC[C@@H]5OC(O)[C@H](O)[C@H]5O)[C@H](O)[C@H]4O)[C@H](O)[C@H]3O)[C@H](O)[C@H]2O)[C@H](O)[C@H]1O` (stereo partly shown) [A5, arabinopentaose], the “X-ray crystal structure, soaked crystal, 2.95 A” value was “extra density was observed in Domain4, and this could be clearly modelled as an arabinopentaose molecule”.
